According to ChEMBL document CHEMBL1201862, “PubChem BioAssay data set” (2004):
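Dose response: 5 concentrations. Exposure: 48 h. Format: 96-well plates. Endpoint: linear interpolation; highest concentration if not reached. GI50 = concentration required for 50% inhibition of growth.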 Calls of active or inactive are those of the source. Rule as the data show it: active = GI50 up to about 1.1 µM and inactive = higher.

Experiments:
Test in all cases: inhibition of tumour cell growth, NCI panel, 48 h
ACHN = system: ACHN
EKVX = system: EKVX
HCT-15 = system: HCT-15
HOP-92 = system: HOP-92
IGROV-1 = system: IGROV-1
MDA-MB-231 = system: MDA-MB-231
MDA-MB-435 = system: MDA-MB-435
MOLT-4 = system: MOLT-4
NCI-H460 = system: NCI-H460
OVCAR-4 = system: OVCAR-4
RXF 393 = system: RXF 393
SK-MEL-28 = system: SK-MEL-28
SK-MEL-2 = system: SK-MEL-2
SR = system: SR
TK-10 = system: TK-10
UO-31 = system: UO-31
HL-60 = system: HL-60
Hs-578T = system: Hs-578T
Malme-3M = system: Malme-3M
SK-OV-3 = system: SK-OV-3

SMILES | GI50 (ACHN) | GI50 (EKVX) | GI50 (HCT-15) | GI50 (HOP-92) | GI50 (IGROV-1) | GI50 (MDA-MB-231) | GI50 (MDA-MB-435) | GI50 (MOLT-4) | GI50 (NCI-H460) | GI50 (OVCAR-4) | GI50 (RXF 393) | GI50 (SK-MEL-28) | GI50 (SK-MEL-2) | GI50 (SR) | GI50 (TK-10) | GI50 (UO-31) | GI50 (HL-60) | GI50 (Hs-578T) | GI50 (Malme-3M) | GI50 (SK-OV-3)
CC(=O)O[C@H]1CC[C@H]2[C@@H]3CCC4=CC(=O)C=C[C@]4(O)[C@H]3CC[C@]12C | > 84.5 µM (inactive) | 31.7 µM (inactive) | 29.6 µM | 23.9 µM (inactive) | 55.1 µM (inactive) | > 82.8 µM (inactive) | 16.4 µM (inactive) | 8 µM (inactive) | 32.2 µM (inactive) | > 48.9 µM (inactive) | 20.6 µM (inactive) | 28.2 µM (inactive) | 22.1 µM (inactive) | 0.738 µM (active) | > 100 µM (inactive) | 55.5 µM (inactive) | – | – | – | –
COc1c(CC=C(C)C)c(O)c(C(CC(C)C)c2c(O)c3c(c(C(C)=O)c2O)OC(C(C)(C)O)C3)c(O)c1C(C)=O (stereo not drawn) | 4.42 µM (inactive) | 3.76 µM (inactive) | 3.64 µM | 2.71 µM (inactive) | 5.07 µM (inactive) | – | 4.63 µM (inactive) | 1.74 µM (inactive) | – | 4.57 µM (inactive) | 3.67 µM (inactive) | 6.12 µM (inactive) | 4.15 µM (inactive) | 2.17 µM (inactive) | – | 4.32 µM (inactive) | 3.52 µM (inactive) | 3.94 µM (inactive) | 3.91 µM (inactive) | 5.46 µM (inactive)
COC(=O)C(Cc1cn(C(C)=O)c2ccccc12)P(=O)(OC)OC (stereo not drawn) | > 100 µM (inactive) | – | > 100 µM | > 100 µM (inactive) | > 100 µM (inactive) | > 100 µM (inactive) | > 100 µM (inactive) | – | > 100 µM (inactive) | > 100 µM (inactive) | > 100 µM (inactive) | > 100 µM (inactive) | – | > 100 µM (inactive) | > 100 µM (inactive) | 72.9 µM (inactive) | > 100 µM (inactive) | – | – | –
C[C@]12CC[C@H](O)CC1=CC[C@@H]1C2CC[C@]2(C)C(=O)N(N)C(=O)CC12 (stereo partly drawn) | > 100 µM (inactive) | > 100 µM (inactive) | > 100 µM | > 100 µM (inactive) | > 100 µM (inactive) | – | – | > 100 µM (inactive) | > 100 µM (inactive) | > 100 µM (inactive) | > 100 µM (inactive) | > 100 µM (inactive) | > 100 µM (inactive) | > 100 µM (inactive) | > 100 µM (inactive) | > 100 µM (inactive) | > 100 µM (inactive) | – | > 100 µM (inactive) | > 100 µM (inactive)
CC12CCC([C@H](Nc3cc(C(F)(F)F)cc(C(F)(F)F)c3)C1=O)C2(C)C (stereo partly drawn) | > 100 µM (inactive) | > 100 µM (inactive) | > 100 µM | – | 47.3 µM (inactive) | > 100 µM (inactive) | > 100 µM (inactive) | > 100 µM (inactive) | – | > 100 µM (inactive) | 0.0162 µM (active) | > 100 µM (inactive) | > 100 µM (inactive) | > 100 µM (inactive) | > 100 µM (inactive) | > 100 µM (inactive) | – | – | > 100 µM (inactive) | > 100 µM (inactive)
CN1CN(c2ccccc2)C2(CCN(Cc3csc4ccccc34)CC2)C1=O | 17.6 µM (inactive) | 7.53 µM (inactive) | 14.5 µM | – | 10.8 µM (inactive) | > 10 µM (inactive) | 14.3 µM (inactive) | 4.32 µM (inactive) | – | – | 16.6 µM (inactive) | 22.1 µM (inactive) | – | 4.45 µM (inactive) | 12.9 µM (inactive) | 3.71 µM (inactive) | 4.39 µM (inactive) | – | 17.2 µM (inactive) | 38.2 µM (inactive)
Cc1ccccc1Nc1nc(NNC(=O)Cc2ccccc2)nc(NNC(=O)c2ccncc2)n1 | – | > 10 µM (inactive) | > 10 µM | > 10 µM (inactive) | > 10 µM (inactive) | > 10 µM (inactive) | – | > 10 µM (inactive) | > 10 µM (inactive) | > 10 µM (inactive) | – | > 10 µM (inactive) | – | > 10 µM (inactive) | > 10 µM (inactive) | > 10 µM (inactive) | > 10 µM (inactive) | > 10 µM (inactive) | > 10 µM (inactive) | > 10 µM (inactive)
Cc1cc(=O)oc2cc(OCC(O)COC(C)C)ccc12 (stereo not drawn) | > 100 µM (inactive) | > 100 µM (inactive) | > 100 µM | 80.9 µM (inactive) | > 100 µM (inactive) | > 100 µM (inactive) | – | > 100 µM (inactive) | > 100 µM (inactive) | 59.2 µM (inactive) | – | > 100 µM (inactive) | – | > 100 µM (inactive) | > 100 µM (inactive) | > 100 µM (inactive) | > 100 µM (inactive) | 97.1 µM (inactive) | > 100 µM (inactive) | > 100 µM (inactive)
